The term inhibition denotes the percentage by which the read-out fell short of the control.

These results are taken from ChEMBL document CHEMBL1142760, “Glycosidase inhibition by 1-glycosyl-4-phenyl triazoles” (Bioorg Med Chem Lett, 2005).

Experiment [1] addresses T1, Alpha-galactosidase (Escherichia coli K-12) (UniProt P06720).
T1 sequence (whole entry): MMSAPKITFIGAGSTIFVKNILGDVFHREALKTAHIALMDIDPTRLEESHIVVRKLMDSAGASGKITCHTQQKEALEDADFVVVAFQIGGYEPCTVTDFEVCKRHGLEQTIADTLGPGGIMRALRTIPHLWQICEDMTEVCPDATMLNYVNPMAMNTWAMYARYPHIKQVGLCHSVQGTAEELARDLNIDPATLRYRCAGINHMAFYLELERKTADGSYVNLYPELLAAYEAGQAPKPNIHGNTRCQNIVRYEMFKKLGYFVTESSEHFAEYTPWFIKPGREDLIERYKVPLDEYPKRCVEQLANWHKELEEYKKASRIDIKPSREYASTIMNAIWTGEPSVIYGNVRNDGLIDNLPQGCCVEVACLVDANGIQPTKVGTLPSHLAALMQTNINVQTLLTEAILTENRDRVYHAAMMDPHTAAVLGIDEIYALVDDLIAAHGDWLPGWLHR
The experiment can be described thus: Percent inhibition against Escherichia coli galactosidase at 0.24 mM; n>=2.

Experiment [2] concerns the target T1, Alpha-galactosidase (Escherichia coli K-12). The experiment can be described thus: Percent inhibition against Escherichia coli galactosidase at 0.24 mM; n>=3.

Consider `OC[C@@H]1O[C@@H](n2cc(-c3ccccc3)nn2)[C@@H](O)[C@@H](O)[C@@H]1O`, for which the inhibition in experiment [1] was < 20%.

Compound `OC[C@@H]1O[C@@H](n2cc(-c3ccccc3)nn2)[C@@H](O)[C@@H](O)[C@H]1O` yielded an inhibition in experiment [2] of 30%.

As to `OC[C@H]1NC[C@H](O)[C@@H](O)[C@@H]1O`, the inhibition in experiment [2] is < 20%.
